Source: patent US20260216182A1, “PYRIDAZINE NLRP3 INHIBITOR COMPOUND, PHARMACEUTICAL COMPOSITION, AND PREPARATION METHOD THEREFOR AND USE THEREOF” (CHANGCHUN GENESCIENCE PHARMACEUTICAL CO., LTD., priority 2022, published 2026)

Biological target: T1, NLRP3 (Homo sapiens, UniProt Q96P20)
T1 construct: endogenous in cells; host or cells: THP-1 (human monocyte, PMA-differentiated, LPS-primed, nigericin-stimulated)
Test: IC50 of NLRP3 inhibitors in reducing IL-1β secretion by THP-1 cells (PMA, LPS, nigericin; ELISA)
Type: cell-based
Settings: compound + nigericin 1 h
Procedure: Test Example 1 Experiment on Detection of IC50 of NLRP3 Inhibitors in Reducing the Level of IL-1β Secretion by THP-1 Cells
In this experiment, we use the human monocyte THP-1 to study the inhibitory activity of NLRP3 inhibitor on the secretion of IL-Iβ by cells. Human THP-1 cells are treated with crotonol-12-tetradecanoate-13-acetate (PMA) to differentiate into mature macrophage models. Then, according to the two stages of inflammasome formation in cells (assembly and activation), the cells are stimulated with lipopolysaccharide (LPS) and nigericin in turn, ultimately promoting the extracellular release of IL-1β by THP-1 cells. The first stage of inflammasome formation involves stimulating cells with LPS (lipopolysaccharide), an agonist of the Toll-like receptor TLR4, to activate the expression of the inflammasome-associated proteins NLRP3, caspase 1, and pro-IL-1β, a precursor of IL-1β. The second stage of inflammasome formation involves the addition of the potassium ion carrier nigericin, which causes a series of membrane potential changes in THP-1 cells, destroys the cell membrane structure, causes the efflux of cellular potassium ions, further stimulates the oligomerization of NLRP3 monomers to form NLRP3 oligomers, and begins to recruit ASC and pro-caspase-1 to assemble the NLRP3 inflammasome complex containing a large amount of pro-caspase-1. The pro-caspase-1 on the activated NLRP3 inflammasome is enzymatically self-activated to form a large amount of active caspase-1. The activated caspase-1 further enzymatically promotes the conversion of pro-IL-1β into mature IL-1β that can be secreted.
(1) Cell suspensions were collected. The cells were centrifuged at 1000 rpm for 4 min, the supernatant was discarded, the cells were resuspended with 1 mL of test medium, and then the cell culture medium was gently pipetted up and down with a pipette and its tip to break up the cell aggregates. After counting the cells, the THP-1 cells were resuspended with complete RPMI medium 1640 containing PMA and seeded into 96-well plates and cultured in a 37° C., 5% CO2 incubator for 72 h.
(2) The culture medium was taken out from each well with an automatic plate washer dispenser EL406 and each well was rinsed twice with PBS. To each well, 96 μL of RPMI 1640 medium containing LPS was added. The cells were cultured in a 37° C., 5% CO2 incubator for 4 h.
(3) To each well, 2 μL of the compound and 2 μL of nigericin sodium salt were added, and the final compound concentration selected was 5000 nM, 1000 nM, 200 nM, 40 nM, 8 nM, 1.6 nM, 0.32 nM, 0 nM, respectively. The cells were cultured in a 37° C., 5% CO2 incubator for 1 h.
(4) An appropriate amount of supernatant was taken out, diluted 100 times, and the content of IL-1β in the supernatant was detected using Human IL-1 beta Valukine ELISA kit.

T1 sequence (Q96P20 whole entry): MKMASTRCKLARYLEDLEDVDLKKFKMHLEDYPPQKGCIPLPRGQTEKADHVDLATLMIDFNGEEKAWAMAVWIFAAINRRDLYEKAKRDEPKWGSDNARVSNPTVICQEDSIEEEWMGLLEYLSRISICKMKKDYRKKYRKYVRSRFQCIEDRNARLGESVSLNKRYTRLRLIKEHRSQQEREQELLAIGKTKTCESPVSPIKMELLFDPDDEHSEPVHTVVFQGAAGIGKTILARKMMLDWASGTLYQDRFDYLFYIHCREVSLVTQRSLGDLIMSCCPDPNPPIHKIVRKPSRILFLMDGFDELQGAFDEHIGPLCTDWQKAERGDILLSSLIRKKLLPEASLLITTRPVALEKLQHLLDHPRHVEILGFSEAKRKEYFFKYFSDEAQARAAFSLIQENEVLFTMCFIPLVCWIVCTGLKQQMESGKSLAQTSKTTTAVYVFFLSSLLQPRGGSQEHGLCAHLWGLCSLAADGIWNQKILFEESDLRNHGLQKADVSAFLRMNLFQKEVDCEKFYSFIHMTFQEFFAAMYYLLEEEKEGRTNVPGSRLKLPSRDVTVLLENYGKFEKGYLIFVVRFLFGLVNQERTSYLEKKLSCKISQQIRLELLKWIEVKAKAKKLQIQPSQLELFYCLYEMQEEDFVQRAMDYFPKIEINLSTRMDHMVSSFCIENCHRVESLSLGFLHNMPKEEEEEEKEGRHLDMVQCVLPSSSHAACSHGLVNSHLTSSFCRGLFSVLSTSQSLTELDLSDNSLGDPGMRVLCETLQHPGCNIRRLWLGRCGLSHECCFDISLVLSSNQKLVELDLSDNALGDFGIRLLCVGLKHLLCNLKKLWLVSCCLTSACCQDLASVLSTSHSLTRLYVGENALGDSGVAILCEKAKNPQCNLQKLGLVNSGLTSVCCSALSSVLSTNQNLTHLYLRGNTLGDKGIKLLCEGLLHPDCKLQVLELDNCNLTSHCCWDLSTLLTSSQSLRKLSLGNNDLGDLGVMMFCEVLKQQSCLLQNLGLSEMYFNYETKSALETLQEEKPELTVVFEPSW

SMILES	IC50
CC(C)(O)CNc1nnc(-c2ccc(Cl)cc2O)c2ccc(C#N)cc12 [Compound 001, 1-(4-chloro-2-hydroxyphenyl)-4-((2-hydroxy-2-methylpropyl)amino) phthalazin-6-carbonitrile]	88 nM
Cn1cc(-c2ccc3c(-c4ccc(Cl)cc4O)nnc(NCC(C)(C)O)c3c2)cn1 [Compound 004, 5-chloro-2-(4-((2-hydroxy-2-methylpropyl)amino)-6-(1-methyl-1H-pyrazol-4-yl)phthalazin-1-yl)phenol]	63 nM
N#Cc1ccc2c(-c3ccc(Cl)cc3O)nnc(N[C@@H]3CCCN(C(=O)C4CC4)C3)c2c1 [Compound 005, (R)-1-(4-chloro-2-hydroxyphenyl)-4-((1-(cyclopropanecarbonyl)piperidin-3-yl)amino) phthalazin-6-carbonitrile]	37 nM
Cc1cc(C(F)(F)F)cc(O)c1-c1nnc(NCC(C)(C)O)c2cc(C#N)ccc12 [Compound 007, 4-((2-hydroxy-2-methylpropyl)amino)-1-(2-hydroxy-6-methyl-4-(trifluoromethyl)phenyl) phthalazin-6-carbonitrile]	29 nM
NC(=O)N1CCC[C@@H](Nc2nnc(-c3ccc(Cl)cc3O)c3ccncc23)C1 [Compound 008, (R)-3-((1-(4-chloro-2-hydroxyphenyl)pyrido[3,4-d]pyridazin-4-yl)amino)piperidin-1-formamide]	39 nM
NC(=O)CN1CCC[C@@H](Nc2nnc(-c3ccc(Cl)cc3O)c3ccncc23)C1 [Compound 009, (R)-2-(3-((1-(4-chloro-2-hydroxyphenyl)pyrido[3,4-d]pyridazin-4-yl)amino)piperidin-1-yl)acetamide]	28 nM
C[C@@H](C(N)=O)N1CCC[C@@H](Nc2nnc(-c3ccc(Cl)cc3O)c3ccncc23)C1 [Compound 016, (S)-2-((R)-3-((1-(4-chloro-2-hydroxyphenyl)pyrido[3,4-d]pyridazin-4-yl)amino)piperidin-1-yl) propionamide]	11 nM
CC(C)(O)CNc1nnc(-c2ccc3sccc3c2O)c2ccc(C#N)cc12 [Compound 018, 4-((2-hydroxy-2-methylpropyl)amino)-1-(4-hydroxybenzo[b]thiophen-5-yl) phthalazine-6-carbonitrile]	50 nM
CC(C)(O)CNc1nnc(-c2ccc3sc(F)cc3c2O)c2ccc(C#N)cc12 [Compound 019, 1-(2-fluoro-4-hydroxybenzo[b]thiophen-5-yl)-4-((2-hydroxy-2-methylpropyl)amino) phthalazine-6-carbonitrile]	111 nM
CC#Cc1ccc2c(-c3c(C)cc(Cl)cc3O)nnc(NCC(C)(C)O)c2c1 [Compound 024-1]	108 nM
Cc1cc(Cl)cc(O)c1-c1nnc(NCC(C)(C)O)c2cc(-n3cccn3)ccc12 [Compound 026, 5-chloro-2-(4-((2-hydroxy-2-methylpropyl)amino)-6-(1H-pyrazol-1-yl)phthalazin-1-yl)-3-methylphenol]	35 nM
Cc1cc(Cl)cc(O)c1-c1nnc(NCC(C)(C)O)c2cc(-n3nccn3)ccc12 [Compound 028, 5-chloro-2-(4-((2-hydroxy-2-methylpropyl)amino)-6-(2H-1,2,3-triazol-2-yl)phthalazin-1-yl)-3-methylphenol]	35 nM
CC#Cc1ccc2c(-c3ccc(Cl)cc3O)nnc(NCC(C)(C)O)c2c1 [Compound 036, 5-chloro-2-(4-((2-hydroxy-2-methylpropyl)amino)-6-(prop-1-yn-1-yl)phthalazin-1-yl)phenol]	51 nM
Cc1cc(Cl)cc(O)c1-c1nnc(NCC(C)(C)O)c2cc(-c3cnn(C)c3)ccc12 [Compound 038]	42 nM
Cc1cc(Cl)cc(O)c1-c1nnc(NCC(C)(C)O)c2cc(-c3cnn(C4CC4)c3)ccc12 [Compound 039, 5-chloro-2-(6-(1-cyclopropyl-1H-pyrazol-4-yl)-4-((2-hydroxy-2-methylpropyl)amino)phthalazin-1-yl)-3-methylphenol]	73 nM
Cc1cc(Cl)cc(O)c1-c1nnc(NCC(C)(C)O)c2cc(-c3ccn(C)n3)ccc12 [Compound 040, 5-chloro-2-(4-((2-hydroxy-2-methylpropyl)amino)-6-(1-methyl-1H-pyrazol-3-yl)phthalazin-1-yl)-3-methylphenol]	54 nM
CC(C)(C(=O)NC1CC1)N1CCC[C@@H](Nc2nnc(-c3ccc(Cl)cc3O)c3ccncc23)C1 [Compound 043, (R)-2-(3-((1-(4-chloro-2-hydroxyphenyl)pyrido[3,4-d]pyridazin-4-yl)amino)piperidin-1-yl)-N-cyclopropyl-2-methylpropionamide]	34 nM
CCn1cc(-c2ccc3c(-c4c(C)cc(Cl)cc4O)nnc(NCC(C)(C)O)c3c2)cn1 [Compound 051, 5-chloro-2-(6-(1-ethyl-1H-pyrazol-4-yl)-4-((2-hydroxy-2-methylpropyl)amino)phthalazin-1-yl)-3-methylphenol]	46 nM
Cc1cc(Cl)cc(O)c1-c1nnc(NCC(C)(C)O)c2cc(-n3ccnn3)ccc12 [Compound 058, 5-chloro-2-(4-((2-hydroxy-2-methylpropyl)amino)-6-(1H-1,2,3-triazol-1-yl)phthalazin-1-yl)-3-methylphenol]	158 nM
CC#Cc1ccc2c(-c3ccc(C(F)(F)F)cc3O)nnc(N[C@@H]3CCCC[C@H]3O)c2c1 [Compound 061, 2-(4-(((1R,2R)-2-hydroxycyclohexyl)amino)-6-(prop-1-yn-1-yl)phthalazin-1-yl)-5-(trifluoromethyl)phenol]	23 nM

Further compounds by falling IC50, results first:

IC50	SMILES
20 nM	CC#Cc1ccc2c(-c3c(O)cc(C(F)(F)F)cc3F)nnc(N[C@H]3C[C@@](C)(O)C3)c2c1 [Compound 066, 3-fluoro-2-(4-(((1S,3S)-3-hydroxy-3-methylcyclobutyl)amino)-6-(prop-1-yn-1-yl)phthalazin-1-yl)-5-(trifluoromethyl)phenol]
19 nM	CC#Cc1ccc2c(-c3c(C)cc(Cl)cc3O)nnc(NCC(C)(C)O)c2c1 [Compound 024, 5-chloro-2-(4-((2-hydroxy-2-methylpropyl)amino)-6-(1-propyn-1-yl)phthalazin-1-yl)-3-methylphenol]
18 nM	CC#Cc1ccc2c(-c3ccc(C(F)(F)F)cc3O)nnc(NC[C@H](O)CO)c2c1 [Compound 056, (S)-3-((4-(2-hydroxy-4-(trifluoromethyl)phenyl)-7-(prop-1-yn-1-yl)phthalazin-1-yl)amino) propan-1,2-diol]
17 nM	C[C@H](C(N)=O)N1CCC[C@@H](Nc2nnc(-c3ccc(Cl)cc3O)c3ccncc23)C1 [Compound 017, (R)-2-((R)-3-((1-(4-chloro-2-hydroxyphenyl)pyrido[3,4-d]pyridazin-4-yl)amino)piperidin-1-yl) propionamide]
16 nM	COC(=O)N1CCC[C@@H](Nc2nnc(-c3ccc(Cl)cc3O)c3ccncc23)C1 [Compound 010, Methyl (R)-3-((1-(4-chloro-2-hydroxyphenyl)pyrido[3,4-d]pyridazin-4-yl)amino)piperidin-1-carboxylate]
14 nM	CC#Cc1ccc2c(-c3c(C)cc(Cl)cc3O)nnc(NC[C@@H](C)O)c2c1 (mixture of isomers) [Compound 035]
14 nM	CC(C(=O)NC1CC1)N1CCC[C@@H](Nc2nnc(-c3ccc(Cl)cc3O)c3ccncc23)C1 (mixture of isomers) [Compound 041, 2-((R)-3-((1-(4-chloro-2-hydroxyphenyl)pyrido[3,4-d]pyridazin-4-yl)amino)piperidin-1-yl)-N-cyclopropylpropionamide]
14 nM	CC(C(=O)N1CCCC1)N1CCC[C@@H](Nc2nnc(-c3ccc(Cl)cc3O)c3ccncc23)C1 (stereo partly drawn) [Compound 042]
13 nM	CC#Cc1ccc2c(-c3ccc(C(F)(F)F)cc3O)nnc(N[C@H]3C[C@@](C)(O)C3)c2c1 [Compound 065, 2-(4-(((1S, 3S)-3-hydroxy-3-methylcyclobutyl)amino)-6-(prop-1-yn-1-yl)phthalazin-1-yl)-5-(trifluoromethyl)phenol]
12 nM	O=C(C1CC1)N1CCC[C@@H](Nc2nnc(-c3ccc(Cl)cc3O)c3ccncc23)C1 [Compound 006, (R)-(3-((1-(4-chloro-2-hydroxyphenyl)pyrido[3,4-d]pyridazin-4-yl)amino)piperidin-1-yl)(cyclopropyl)methanone]
